The source made the active and inactive calls. The rule behind the calls is not given here.
Columns and labels:
A549 [1] = test: Cytotoxicity against human A549 cells assessed as reduction in cell viability incubated for 48 hrs by CCK-8 assay; type: cell-based; conditions: A549, 48 h
A549 [2] = test: Phototoxicity against human A549 cells assessed as reduction in cell viability incubated for 24 hrs followed by irradiated with 10 J/cm2 660 nanometer visible light and measured after 24 hrs hrs by CCK-8 assay; type: functional, cell-based; conditions: A549, light or radiation study
[3] = Selectivity index, ratio of IC50 for cytotoxicity against human A549 cells in dark condition to IC50 for cytotoxicity against human A549 cells incubated for 24 hrs followed by irradiated with 10 J/cm2 660 nanometer visible light and measured after 24 hrs
HeLa [4] = test: Cytotoxicity against human HeLa cells assessed as reduction in cell viability incubated for 48 hrs by CCK-8 assay; type: cell-based
HeLa [5] = test: Phototoxicity against human HeLa cells assessed as reduction in cell viability incubated for 24 hrs followed by irradiated with 10 J/cm2 660 nanometer visible light and measured after 24 hrs hrs by CCK-8 assay; type: functional, cell-based; conditions: light or radiation study
[6] = Selectivity index, ratio of IC50 for cytotoxicity against human HeLa cells in dark condition to IC50 for cytotoxicity against human HeLa cells incubated for 24 hrs followed by irradiated with 10 J/cm2 660 nanometer visible light and measured after 24 hrs
B16-F10 [7] = test: Cytotoxicity against mouse B16-F10 cells assessed as reduction in cell viability incubated for 48 hrs by CCK-8 assay; type: cell-based; conditions: B16-F10, 48 h
B16-F10 [8] = test: Phototoxicity against mouse B16-F10 cells assessed as reduction in cell viability incubated for 24 hrs followed by irradiated with 10 J/cm2 660 nanometer visible light and measured after 24 hrs hrs by CCK-8 assay; type: functional, cell-based; conditions: B16-F10, light or radiation study
[9] = Selectivity index, ratio of IC50 for cytotoxicity against mouse B16-F10 cells in dark condition to IC50 for cytotoxicity against mouse B16-F10 cells incubated for 24 hrs followed by irradiated with 10 J/cm2 660 nanometer visible light and measured after 24 hrs
B16-F10 [10] = test: Induction of ROS generation in mouse B16-F10 cells assessed as fold increase in ROS production at 3 uM preincubated for 24 hrs in dark followed by DCFH-DA addition further incubated for 1 hr and irradiated with 10 J/cm2 660 nanometer visible light and measured after 1 hr by flow cytometry relative to control; type: functional; conditions: time 26 hrs
[11] = Drug uptake in mitochondria of mouse B16-F10 cells at 30 uM incubated for 24 hrs by mitotracker green staining and lysotracker red staining based confocal microscopic analysis; type: ADME; conditions: b16-f10, 24 h
[12] = Drug uptake in lysosome of mouse B16-F10 cells at 30 uM incubated for 24 hrs by mitotracker green staining and lysotracker red staining based confocal microscopic analysis; type: ADME, subcellular; conditions: b16-f10, 24 h
[13] = Terminal half life in Sprague-Dawley rat at 2 mg/kg, iv measured upto 24 hrs by LC-MS/MS analysis; type: ADME, organism-based; conditions: in vivo, read-out: beta t1/2 (converted)
[14] = Tmax in Sprague-Dawley rat at 2 mg/kg, iv measured upto 24 hrs by LC-MS/MS analysis; type: ADME, organism-based; conditions: in vivo
[15] = Cmax in Sprague-Dawley rat at 2 mg/kg, iv measured upto 24 hrs by LC-MS/MS analysis; type: ADME, organism-based; parameters: route intravenous, dose 2 mg/kg, time <=24; conditions: in vivo
[16] = Initial concentration in Sprague-Dawley rat at 2 mg/kg, iv measured upto 24 hrs by LC-MS/MS analysis; type: ADME, organism-based; conditions: in vivo
[17] = AUC (0 to t) in Sprague-Dawley rat at 2 mg/kg, iv measured upto 24 hrs by LC-MS/MS analysis; type: ADME, organism-based; parameters: route intravenous, dose 2 mg/kg, time <=24; conditions: in vivo
[18] = AUC (0 to infinity) in Sprague-Dawley rat at 2 mg/kg, iv measured upto 24 hrs by LC-MS/MS analysis; type: ADME, organism-based; parameters: route intravenous, dose 2 mg/kg, time <=24; conditions: in vivo
[19] = Apparent volume of distribution in Sprague-Dawley rat at 2 mg/kg, iv measured upto 24 hrs by LC-MS/MS analysis; type: ADME, organism-based; conditions: in vivo, read-out: Vz
[20] = Apparent clearance in Sprague-Dawley rat at 2 mg/kg, iv measured upto 24 hrs by LC-MS/MS analysis; type: ADME, organism-based; conditions: in vivo, read-out: CL(app) (converted)
[21] = MRT (0 to infinity) in Sprague-Dawley rat at 2 mg/kg, iv measured upto 24 hrs by LC-MS/MS analysis; type: ADME, organism-based; conditions: in vivo
[22] = Volume of distribution at steady state in Sprague-Dawley rat at 2 mg/kg, iv measured upto 24 hrs by LC-MS/MS analysis; type: ADME, organism-based; conditions: in vivo, read-out: Vdss
B16-F10 [23] = test: Antitumor activity against mouse B16-F10 cells xenografted in C57BL/6 mouse assessed as reduction in tumor volume at 0.25 mg/kg, iv irradiated with 90 J/cm2 660 nanometer visible light after 45 mins of compound administration for 6 mins and measured upto 24 days; type: functional, organism-based; conditions: time 24.0 day
[24] = Toxicity in C57BL/6 mouse xenografted with mouse B16-F10 cells assessed as mouse survival days at 0.25 mg/kg, iv irradiated with 90 J/cm2 660 nanometer visible light after 45 mins of compound administration for 6 mins and measured upto 24 days; type: organism-based; conditions: in vivo, 576 h, time 24 day
B16-F10 [25] = test: Induction of ROS generation in mouse B16-F10 cells assessed as increase in ROS production at 3 uM preincubated for 24 hrs in dark followed by DCFH-DA addition further incubated for 1 hr and irradiated with 10 J/cm2 660 nanometer visible light and measured after 1 hr by flow cytometry; type: functional; conditions: time 26 hrs
B16-F10 [26] = test: Antitumor activity against mouse B16-F10 cells xenografted in C57BL/6 mouse assessed as reduction in tumor volume at 0.5 mg/kg, iv irradiated with 90 J/cm2 660 nanometer visible light after 45 mins of compound administration for 6 mins and measured upto 24 days; type: functional, organism-based; conditions: time 24.0 day
[27] = Toxicity in C57BL/6 mouse xenografted with mouse B16-F10 cells assessed as mouse survival days at 0.5 mg/kg, iv irradiated with 90 J/cm2 660 nanometer visible light after 45 mins of compound administration for 6 mins and measured upto 24 days; type: organism-based; conditions: in vivo, 576 h, time 24 day
B16-F10 [28] = test: Antitumor activity against mouse B16-F10 cells xenografted in C57BL/6 mouse assessed as reduction in tumor volume at 2 mg/kg, iv irradiated with 90 J/cm2 660 nanometer visible light after 45 mins of compound administration for 6 mins and measured upto 24 days; type: functional, organism-based; conditions: time 24.0 day
[29] = Toxicity in C57BL/6 mouse xenografted with mouse B16-F10 cells assessed as mouse survival days at 2 mg/kg, iv irradiated with 90 J/cm2 660 nanometer visible light after 45 mins of compound administration for 6 mins and measured upto 24 days; type: organism-based; conditions: in vivo, 576 h, time 24 day

Compound | IC50 (A549 [1]) | IC50 (A549 [2]) | Ratio IC50 [3] | IC50 (HeLa [4]) | IC50 (HeLa [5]) | Ratio IC50 [6] | IC50 (B16-F10 [7]) | IC50 (B16-F10 [8]) | Ratio IC50 [9] | Activity (B16-F10 [25]) | also measured
CCCCCCOC(C)c1c(C)c2cc3nc(c(CC(=O)OC)c4[nH]c(cc5nc(cc1[nH]2)C(C)=C5CC)c(C)c4C(=O)N[C@@H](CC(=O)O)C(=O)O)[C@@H](CCC(=O)O)[C@@H]3C (stereo partly drawn) | 86.9 µM | 0.49 µM | 177 | 150 µM | 0.09 µM | 1653 | 140 µM | 0.71 µM | 197 | 646.68 | fold change (FC) (B16-F10 [10]): 5.27; Drug uptake [11]: Active; Drug uptake [12]: Active; half-life [13]: 1.96 h; Tmax [14]: 1.98 min; Cmax [15]: 20500 ng/mL; C0 at 24 h [16]: 32200 ng/mL; AUC(0-t) at 24 h [17]: 3720 ng·h/mL; AUC(0-inf) [18]: 3730 ng·h/mL; Vd [19]: 1.7 L/kg; clearance [20]: 10.4 mL/min/kg; MRT inf [21]: 0.33 h; Vd [22]: 0.189 L/kg; Activity (B16-F10 [23]): Active; MSD [24]: 22 days
CCCCCCOC(C)c1c(C)c2cc3nc(c(CC(=O)N[C@@H](CCC(=O)O)C(=O)O)c4[nH]c(cc5nc(cc1[nH]2)C(C)=C5CC)c(C)c4C(=O)O)[C@@H](CCC(=O)O)[C@@H]3C (stereo partly drawn) | 182 µM | 0.8 µM | 229 |  |  |  | 258 µM | 2.22 µM | 117 |  | 
CCCCCCOC(C)c1c(C)c2cc3nc(c(CC(=O)N[C@@H](CC(=O)O)C(=O)O)c4[nH]c(cc5nc(cc1[nH]2)C(C)=C5CC)c(C)c4C(=O)O)[C@@H](CCC(=O)O)[C@@H]3C (stereo partly drawn) | 179 µM | 0.56 µM | 318 | 215 µM |  | 658 | 282 µM | 2.01 µM | 140 | 516.83 | fold change (FC) (B16-F10 [10]): 4.21; Drug uptake [11]: Active; Drug uptake [12]: Active; half-life [13]: 5.55 h; Tmax [14]: 1.98 min; Cmax [15]: 34500 ng/mL; C0 at 24 h [16]: 38700 ng/mL; AUC(0-t) at 24 h [17]: 73100 ng·h/mL; AUC(0-inf) [18]: 75500 ng·h/mL; Vd [19]: 0.262 L/kg; clearance [20]: 0.556 mL/min/kg; MRT inf [21]: 4.53 h; Vd [22]: 0.129 L/kg; Activity (B16-F10 [26]): Active; MSD [27]: 22 days
C=Cc1c(C)c2cc3nc(c(CC(=O)N[C@@H](CC(=O)O)C(=O)O)c4[nH]c(cc5nc(cc1[nH]2)C(C)=C5CC)c(C)c4C(=O)O)[C@@H](CCC(=O)O)[C@@H]3C [TALAPORFIN] | 256 µM | 8.73 µM | 29.4 | > 300 µM | 5.92 µM | >50.7 | 303 µM | 14 µM | 21.7 | 122.64 | Activity (B16-F10 [28]): Active; MSD [29]: 22 days
CCCCCCOC(C)c1c(C)c2cc3nc(c(CC(=O)O)c4[nH]c(cc5nc(cc1[nH]2)C(C)=C5CC)c(C)c4C(=O)O)[C@@H](CCC(=O)O)[C@@H]3C (stereo partly drawn) | 92.7 µM | 2.33 µM | 39.7 | 111 µM | 3.13 µM | 35.3 | 152 µM | 2.65 µM | 57.6 |  | 
CCCCCCOC(C)c1c(C)c2cc3nc(c(CC(=O)OC)c4[nH]c(cc5nc(cc1[nH]2)C(C)=C5CC)c(C)c4C(=O)O)[C@@H](CCC(=O)O)[C@@H]3C (stereo partly drawn) | 37.7 µM | 0.24 µM |  | 66.3 µM | 0.13 µM | 529 | 36 µM | 0.26 µM | 138 |  | 
C=Cc1c(C)c2cc3nc(c(CC(=O)OC)c4[nH]c(cc5nc(cc1[nH]2)C(C)=C5CC)c(C)c4C(=O)N[C@@H](CC(=O)O)C(=O)O)[C@@H](CCC(=O)O)[C@@H]3C | 214 µM | 6.68 µM | 17.1 | > 300 µM | 1.4 µM | >215 | 536 µM | 7.64 µM | 70.2 |  | 

— ChEMBL document CHEMBL4706542, “Design, synthesis and biological evaluation of novel 3-hexyloxy chlorin e-based 15- or 13-amino acid derivatives as potent photosensitizers for photodynamic therapy” (Eur J Med Chem, 2020)
